Read-outs that look alike come from different tables or passages of the source.
Experiments:
serum iron [1] = test: Reduction of free plasma iron in rats (serum iron after i.p. dosing); assay type: in vivo, Sprague-Dawley rats; settings: IP dosing, FIGS. 2 and 3
Method: At Day 1, the animals were monitored for free Fe^2+ in serum. In order to reach a homogenous serum level, Fe^2+ was analyzed and a homogenous cohort of 7 or 8 animals randomized to each treatment group. At Day 2, an acute experiment where the animals were subjected to i.p. dosing of test compound and subsequent tail vein blood samples. Prior to dosing, the animals were put under a heating lamp for 3-5 minutes. Blood samples were drawn from the tail vein from all animals in order to determine serum iron levels prior to vehicle or compound dosing. Animals were dosed i.p. with 1 ml of test substance in vehicle or just vehicle and blood samples of 250 μl was drawn from each animal at t=0, 60, 120, 240, 360 min and 24 hours in the study of the reference compound. The dose response study performed with Retro Inverse (RI) mini-Hepcidin (Reference compound), and the efficacy study performed with Compound No. 2 were performed as two separate experiments. […]
Male Sprague-Dawley rats weighing 200-250 g were used in the study. […] Humane endpoints were applied, according to OECD's “Guidelines for Endpoints in Animal Study Proposals.” The animals were monitored daily.
Iron content in plasma/serum is measured for iron content using a colorimetric assay on the Cobas c 111 according to instructions from the manufacturer of the assay (assay: IRON2: ACN 661). […]

serum iron [2] = test: In vivo serum iron reduction in mice; set-up: species or system mice (C57-BL6); settings: tested in rats or in mice
Method: Instead of rats, mice (C57-BL6) were tested.
A similar experiment was performed with lower doses to assess the dose response of these compounds for inducing serum iron reduction. Methods were as described above in this Example, except for the following parameters: n=4 mice/group, however n=8 for the vehicle, as two groups were pooled. Mice were administered test compounds at two separate dosages (300 nmol/kg or 1000 nmol/kg), via subcutaneous injection. Serum iron levels were assessed as in Example 8 two hours after peptide or vehicle injection. […] Moreover, it was clear that several of the compounds were able to induce maximum effects at dosages as low as 300 nmol/kg.
The route of peptide administration was via subcutaneous injection, unless otherwise indicated as having been via intraperitoneal injection (this is noted on the table by “i.p.” in parentheses following the “yes” or “no” determination).
(§1) The peptides were also tested for other pharmacokinetic/pharmacodynamic (PK/PD) parameters using methods commonly know by the skilled artisan. These parameters included determinations regarding stability (hours stable in plasma from the indicated human or rat subject), half-life in mice, and in vitro activity (EC50), tested as described in Example 2.

human ferroportin = biological target: T1, human ferroportin (Homo sapiens, UniProt Q9NP59); assay type: cell-based; settings: for % Activity At 1 uM: at 1 uM peptide, monomers and disulphide-linked dimers
T1 sequence (Q9NP59 1-571): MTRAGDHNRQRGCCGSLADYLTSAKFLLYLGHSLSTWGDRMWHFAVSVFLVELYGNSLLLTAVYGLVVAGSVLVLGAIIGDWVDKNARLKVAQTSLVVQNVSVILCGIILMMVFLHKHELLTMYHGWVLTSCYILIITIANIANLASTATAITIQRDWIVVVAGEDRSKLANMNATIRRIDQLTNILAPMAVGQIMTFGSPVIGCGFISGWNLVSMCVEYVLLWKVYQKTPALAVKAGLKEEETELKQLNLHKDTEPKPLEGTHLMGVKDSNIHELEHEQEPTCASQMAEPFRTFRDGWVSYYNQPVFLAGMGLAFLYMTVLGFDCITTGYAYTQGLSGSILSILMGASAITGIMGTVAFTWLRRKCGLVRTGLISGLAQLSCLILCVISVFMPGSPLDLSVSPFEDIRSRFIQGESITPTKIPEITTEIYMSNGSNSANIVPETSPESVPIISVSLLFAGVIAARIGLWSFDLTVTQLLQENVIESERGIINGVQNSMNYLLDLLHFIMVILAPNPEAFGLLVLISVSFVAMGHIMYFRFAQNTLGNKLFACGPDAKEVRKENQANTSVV
From the text: The cDNA encoding the human ferroportin (SLC40A1) was cloned from a cDNA clone from Origene (NM_014585). The DNA encoding the ferroportin was amplified by PCR using primers also encoding terminal restriction sites for subcloning, but without the termination codon. The ferroportin receptor was subcloned into a mammalian GFP expression vector containing a neomycin (G418) resistance marker in such that the reading frame of the ferroportin was fused in frame with the GFP protein. The fidelity of the DNA encoding the protein was confirmed by DNA sequencing. HEK293 cells were used for transfection of the ferroportin-GFP receptor expression plasmid. The cells were grown according to standard protocol in growth medium and transfected with the plasmids using Lipofectamine (manufacturer's protocol, Invitrogen). […] The cells were propagated and frozen in aliquots.
A retro inverse peptide is a peptide with a reversed sequence in all D amino acids. […] The EC50 of these reference compounds for ferroportin degradation was determined according to the activity assay described above.

[3] = Stability in human serum (LC-MS); assay type: in vitro ADME; settings: 10 μM peptide, 37 degrees C, up to 24 hours
Method: Serum stability experiments were undertaken to complement the in vivo results and assist in the design of potent, stable Ferroportin agonists. In order to predict the stability in humans, ex vivo stability studies were initially performed in human serum.
Samples were taken at various time points up to 24 hours. The samples were separated from serum proteins and analysed for the presence of the peptide of interest using LC-MS. The amount of intact peptide in each sample was calculated using the analyte peak area in relation to the zero time point.
as §1

serum iron [4] = test: In vivo serum iron reduction in mice; set-up: species or system mice (C57-BL6); settings: C57BL6 mice, time course, FIG. 6
[5] = Hepcidin analog peptides, read-out: Potency EC50
[6] = read-out: EC50 (nM) (n > 3), alanine scan of Compound 18

Row | Substance | In Vivo Activity (s.c.) 300 nmol/kg (serum iron [2]; 300 nmol/kg) | In Vivo Activity (s.c.) 1000 nmol/kg (serum iron [2]; 1000 nmol/kg) | EC50 (human ferroportin; [5]) | also measured
1 | Isovaleric acid-DTHFPICIFGPRSKGWVC-NH2 [Compound 2] | Yes | Yes |  | serum iron level (serum iron [1]): a decrease in serum iron level that was comparable to that observed after injection of the positive control
2 | Isovaleric acid-DTHFPCIQFGPRSKGWVCK-NH2 [Compound 10] |  | Minor |  | 
3 | Isovaleric acid-DTHFPCIKF-K(PEG8)-PRSKGWVCK-NH2 [Compound 150] | Yes |  |  | 
4 | H-DTHFPICIFGPRSKGWVCM-NH2 (cysteine pairing not given here) [Compound 18] |  |  | 125 nM | EC50 (human ferroportin; [6]): 125 nM; t½ [3]: 2.32 h
5 | Hy-DTHFPIC(1)IFC(2)C(3)GC(2)C(4)HRSKC(3)GMC(4)C(1)KT-OH [Hepcidin, reference compound] | Yes | Yes |  | 
6 | Isovaleric acid-DTHFPCIIFGPRSKGCK-NH2 [Compound 115] |  | No |  | 
7 | Isovaleric acid-DTHFPCIEFGPRSKGWVCK-NH2 [Compound 15] |  | Minor |  | 
8 | Hy-DPhe-DIle-DCys-DIle-DPro-DPhe-DHis-DThr-DAsp-NH2 [RI-Mini Hepcidin, reference compound] |  |  |  | serum iron level (serum iron [1]): in neither case significant
9 | Isovaleric acid-DTHFPCIIFEPRSKGWVCK-NH2 [Compound 105] | Yes | Yes |  | 
10 | Isovaleric acid-DTHFPCIKFGPRSKGWVCK-NH2 [Compound 9] | Yes | Yes |  | 
11 | H-DTHFPICIFGPRSKGWACM-NH2 (cysteine pairing not given here) [Compound 47] |  |  | 313 nM | EC50 (human ferroportin; [6]): 313 nM; t½ [3]: ~40 h
12 | Isovaleric acid-DTHFPCIKFGPRSKGWVC-K(PEG8)-NH2 [Compound 153] | Yes | Yes |  | serum iron, PK/PD effects (serum iron [4]): sustained
13 | Isovaleric acid-DTHFPCIIFGPRSRGWVCK-NH2 [Compound 3] |  |  |  | In Vivo Activity 300 nmol/kg (i.p.) (serum iron [2]; 300 nmol/kg, i.p.): No (i.p.); In Vivo Activity 1000 nmol/kg (i.p.) (serum iron [2]; 1000 nmol/kg, i.p.): No (i.p.)
14 | Hy-DTHF-(D)--Ala-CIIF-NH2 [Compound 281] |  |  |  | Potency EC50 (nM) (human ferroportin; Hepcidin analog peptides): Inactive; EC50 (nM) (n > 3) (human ferroportin; alanine scan of Compound 1): Not active
15 | H-DTHFPCIIFGPRSKGWVCK-NH2 (cysteine pairing not given here) [Compound 86] |  |  | > 1000 nM | 
16 | Hy-ETHFPCIIF-NH2 [Compound 300] |  |  |  | % Activity At 1 uM (human ferroportin): 77%; EC50 (human ferroportin; read-out: EC50 (nM) (n = 3), in vitro activity as in Example 2, peptide monomers and dimers dimerized through a single disulphide linkage, n = 3): > 300 nM
17 | H-DAHFPCIIF-NH2 [Compound 52] |  |  | 388 nM | EC50 (human ferroportin; read-out: EC50 (nM) (n > 3), alanine scan of Compound 1): 388 nM
18 | H-DTHFPCIIR-NH2 [Compound 305] |  |  |  | % Activity At 1 uM (human ferroportin): 62%; EC50 (human ferroportin; read-out: EC50 (n = 3), cells printed in μM, in vitro activity as in Example 2, peptide monomers and dimers dimerized through a single disulphide linkage, n = 3): > 1000 nM
19 | Isovaleric acid-DTHFPICIFGPRS-K(PEG8)-GWVC-NH2 [Compound 176] | Yes |  |  | 
20 | H-DTHFPICIFGPRSKAWVCM-NH2 (cysteine pairing not given here) [Compound 31] |  |  | 175 nM | EC50 (human ferroportin; [6]): 175 nM
21 | H-ATHFPCIIF-NH2 [Compound 284] |  |  | > 1000 nM | EC50 (human ferroportin; read-out: EC50 (n > 3), alanine scan of Compound 1): > 1000 nM
22 | Isovaleric acid-DTHFPCIKFEPRSKGWVCK-NH2 [Compound 181] | Yes |  |  | serum iron, PK/PD effects (serum iron [4]): a rapid decrease in serum iron, which was transient
23 | H-DTHFPCIIFGPRARGWVCK-NH2 (cysteine pairing not given here) [Compound 87] |  |  | > 1000 nM | 
24 | Isovaleric acid-DTHFPCIKFEPRSKGCK-NH2 [Compound 184] | Yes | Yes |  | 
25 | H-EDTHFPCIIFGPRSKGWVCK-NH2 (cysteine pairing not given here) [Compound 103] |  |  | > 1000 nM | 
26 | H-DTHFPCIFF-NH2 [Compound 56] |  |  | 441 nM | 
27 | H-DTHFPICIFGPRSKGAVCM-NH2 (cysteine pairing not given here) [Compound 66] |  |  | 520 nM | EC50 (human ferroportin; [6]): 520 nM
28 | H-DTHFPICAFGPRSKGWVCM-NH2 (cysteine pairing not given here) [Compound 68] |  |  | > 10000 nM | EC50 (human ferroportin; read-out: EC50 (n > 3), alanine scan of Compound 18): > 10000 nM
